Experimental data as given in US11096910B2, “Metabolically robust analogs of CYP-eicosanoids for the treatment of cardiac disease” (OMEICOS THERAPEUTICS GMBH, priority 2015, dated 2021).

Columns and labels:
[1] = tested on: mouse neonatal primary cardiomyocyte culture; assay: Oxygen-glucose deprivation/reoxygenation injury in primary cardiomyocytes; format: cell-based; conditions: for amelioration of loss of cell number: Hoechst 33342 staining; for reduction of apoptosis: caspase 3/7 activation
Procedure: In vitro ischemic injury was induced in mouse neonatal primary cardiomyocyte culture by oxygen-glucose deprivation for 18 hours and a 24 hours reoxygenation period in a humidified incubator with 5% CO2/95% air. Cardiomyocytes were incubated with the test compounds during 4 hours prior to the oxygen glucose depriviation (OGD) induction. The test compounds were also present during the OGD insult and during the 24 h-reoxygenation period. After the reoxygenation period, cell number was assessed by Hoechst 33342 staining, apoptosis was measured by determining caspase 3/7 activation, and cell membrane integrity or necrosis was measured as LDH release.
Data were expressed as mean±SD of three separate wells and individual comparisons were made with Student's t-test (SigmaPlot 9.0 program). The results were normalized to the normoxia-treated cells. Statistical significance (*) p<0.05 as compared to normoxia/DMSO-treated cells and (§) hypoxia/DMSO treated cells. Results

[2] = tested on: spontaneously beating neonatal rat cardiomyocytes (NRCMs); assay: Spontaneous beating rate of neonatal rat cardiomyocytes (anti-arrhythmic cell model); format: cell-based; conditions: 20 nM or 30 nM; comparison between analogs
Procedure: The compounds include analogues being part of the invention (Comp-01 to Comp-05), which were synthesized as described in example 1, and additional related compounds (Comp-06 to Comp-13). A 1000-fold stock solutions in ethanol of the test compounds was prepared before use.
In order to measure the biological activities of metabolically robust analogs of CYP-eicosanoids an established cell model was used (Kang, J. X. et al., Proc Natl Acad Sci USA, 1994. 91(21): p. 9886-90). The spontaneously beating neonatal rat cardiomyocytes (NRCMs) are a model system to investigate anti-arrhythmic effects of test-compounds. […]
Isolation and cultivation of NRCMs were performed as described previously (Wallukat, G et al., J Clin Invest. 1999; 103: 945-952; Falck, J R et al., J Med Chem. 2011 Jun. 23; 54(12):4109-18). […] After four hours of incubation cells were adopted for 10 min to 31° C. and beating was recorded using an inverted microscope (Leica DM IRB) equipped with a CCD camera and coupled to an IonOptix (software: IonWizard6, IonOptix). To determine the basal rate, 6 to 8 individual clusters were selected and the number of contractions was counted for 15 sec. After that, the compound to be tested was added to the culture and the beating rate of the same clusters was monitored 5 min later again. […]

Compound	reduction of cellular necrosis (LDH-release) ([1]; 30 nM) [%]	amelioration of loss of cell number ([1]; 30 nM)	reduction of apoptosis ([1]; 30 nM)	reduction of cellular necrosis (LDH-release) ([1]; 10 μM) [%]	amelioration of loss of cell number ([1]; 10 μM)	reduction of apoptosis ([1]; 10 μM) [%]	negative chronotropic effect on NRCMs, in words [2]
CCC1OC1C/C=C\C/C=C\C/C=C\C/C=C\CCCC(=O)O (stereo not shown) [17,18-EEQ, reference compound]	41	did not significantly affect cell number	not at the low concentration tested	37	did not significantly affect cell number	43	
CNC(=O)C(=O)NCCCCc1ccccc1CCCCCCOCC(=O)O [Comp-05]							without major loss of activity
